Patent US5834453A, “Methods for the manufacture and use of antimicrobial sterol conjugates” (Lehigh University, priority 1997, dated 1998)
Values after ≈ are worked out from the molar mass of the structure shown. “Also recorded” adds a separate entry of the source.

How the values were obtained:
[1] = Hemolytic activity, minimal hemolytic concentration (MHC); format: cell-based, sheep; conditions: for MCC at 24 h: sheep, red blood cells;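 as to MCC: MCC here is the minimal hemolytic concentration (MHC)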
Protocol: Hemolytic activity of the squalamine mimics according to the present invention were also studied by incubating sheep red blood cells for 24 hours at 37° C. in saline (final concentration of 0.5%) with or without respective concentrations of the squalamine mimics. The minimal hemolytic concentration (MHC) was determined as the lowest concentration of a mimic that raised visible hemolysis.

[2] = system: P. vulgaris (13315); test: MIC, micro-broth dilution; format: cell-based; conditions: Proteus vulgaris, 35° C., 24 hours, read-out: ANTIMICROBIAL ACTIVITY (MIC)
Protocol: (§1) The antimicrobial activity of the compounds according to the present invention were compared with the results obtained for squalamine as reported in Proc. Nat. Acad. Sci. USA 90:1354 (1993), supra, the disclosure of which is incorporated in toto herein. The data reported in the following table is the minimum inhibitory concentration (MIC) required for complete inhibition of microbial growth. The MIC was determined utilizing known micro-broth dilution methods in which inocula of 10^6 /ml of the test organism were incubated in 0.5× trypticase soy broth at 35° C. for 24 hours. MIC's were also tested under various pH conditions, with calcium chloride or magnesium chloride, or with immobilized horse serum.
(§2) The numbers in parentheses contained in the table correspond to accession numbers with the American Type Culture Collection (reference strains were either obtained from the American Type Culture Collection or from the Microbiology Laboratory at Memorial Sloan-Kettering Cancer Center; Bacterial strains were maintained on Columbia 5% sheep blood agar plates, and fungi were maintained on Sabouraud Dextrose agar plates).

[3] = system: P. aeruginosa (2853); test: MIC, micro-broth dilution; format: cell-based; conditions: Pseudomonas aeruginosa, 24 h, read-out: ANTIMICROBIAL ACTIVITY (MIC)
Protocol: as §1, §2

[4] = system: S. aureus (25923); test: MIC, micro-broth dilution; format: cell-based; conditions: Staphylococcus aureus, 35° C., 24 hours, read-out: ANTIMICROBIAL ACTIVITY (MIC)
Protocol: as §1, §2

[5] = system: S. marcescens (13880); test: MIC, micro-broth dilution; format: cell-based; conditions: for MIC: Serratia marcescens, 24 h, read-out: ANTIMICROBIAL ACTIVITY (MIC)
Protocol: as §1, §2

[6] = system: S. epidermidis (12228); test: MIC, micro-broth dilution; format: cell-based; conditions: Staphylococcus epidermidis, 35° C., 24 hours, read-out: ANTIMICROBIAL ACTIVITY (MIC)
Protocol: as §1, §2

[7] = system: S. aureus (29213); test: MIC, micro-broth dilution; format: cell-based; conditions: Staphylococcus aureus, 24 h, read-out: ANTIMICROBIAL ACTIVITY (MIC)
Protocol: as §1, §2

[8] = system: C. neoformans (M68979); test: MIC, micro-broth dilution; format: cell-based; conditions: Cryptococcus neoformans, 24 h, read-out: ANTIMICROBIAL ACTIVITY (MIC)
Protocol: as §1, §2

[9] = system: C. albicans (90028); test: MIC, micro-broth dilution; format: cell-based; conditions: Candida albicans, 35° C., 24 hours, read-out: ANTIMICROBIAL ACTIVITY (MIC)
Protocol: as §1, §2

[10] = system: E. coli (25922); test: MIC, micro-broth dilution; format: cell-based; conditions: Escherichia coli, 35° C., 24 hours, read-out: ANTIMICROBIAL ACTIVITY (MIC)
Protocol: as §1, §2

[11] = system: A. fumigatus (H1120); test: MIC, micro-broth dilution; format: cell-based; conditions: Aspergillus fumigatus, 35° C., 24 hours, read-out: ANTIMICROBIAL ACTIVITY (MIC)
Protocol: as §1, §2

[12] = system: A. fumigatus (H29709); test: MIC, micro-broth dilution; format: cell-based; conditions: Aspergillus fumigatus, 35° C., 24 hours, read-out: ANTIMICROBIAL ACTIVITY (MIC)
Protocol: as §1, §2

[13] = system: E. cloacae (13047); test: MIC, micro-broth dilution; format: cell-based; conditions: Enterobacter cloacae, 35° C., 24 hours, read-out: ANTIMICROBIAL ACTIVITY (MIC)
Protocol: as §1, §2

[14] = system: K. pneumoniae (13883); test: MIC, micro-broth dilution; format: cell-based; conditions: Klebsiella pneumoniae, 24 h, read-out: ANTIMICROBIAL ACTIVITY (MIC)
Protocol: as §1, §2

[15] = system: E. faecalis (29212); test: MIC, micro-broth dilution; format: cell-based; conditions: Enterococcus faecalis, 35° C., 24 hours, read-out: ANTIMICROBIAL ACTIVITY (MIC)
Protocol: as §1, §2

[16] = system: S. pyrogenes (19615); test: MIC, micro-broth dilution; format: cell-based; conditions: 24 h, read-out: ANTIMICROBIAL ACTIVITY (MIC)
Protocol: as §1, §2

[17] = system: S. agalactiae (13813); test: MIC, micro-broth dilution; format: cell-based; conditions: Streptococcus agalactiae, 35° C., 24 hours, read-out: ANTIMICROBIAL ACTIVITY (MIC)
Protocol: as §1, §2

[18] = system: S. aureus (H20809); test: MIC, micro-broth dilution; format: cell-based; conditions: Staphylococcus aureus, 24 h, read-out: ANTIMICROBIAL ACTIVITY (MIC)
Protocol: as §1, §2

[19] = system: E. faecium (T6480-9); test: MIC, micro-broth dilution; format: cell-based; conditions: Enterococcus faecium, 35° C., 24 hours, read-out: ANTIMICROBIAL ACTIVITY (MIC)
Protocol: as §1, §2

[20] = system: C. neoformans (90012); test: MIC, micro-broth dilution; format: cell-based; conditions: Cryptococcus neoformans, 24 h, read-out: ANTIMICROBIAL ACTIVITY (MIC)
Protocol: as §1, §2

[21] = system: P. aeruginosa (10145); test: MIC, micro-broth dilution; format: cell-based; conditions: Pseudomonas aeruginosa, 35° C., 24 hours, read-out: ANTIMICROBIAL ACTIVITY (MIC)
Protocol: as §1, §2

[22] = system: S. pneumoniae (6305); test: MIC, micro-broth dilution; format: cell-based; conditions: Streptococcus pneumoniae, 35° C., 24 hours, read-out: ANTIMICROBIAL ACTIVITY (MIC)
Protocol: as §1, §2

| Compound | MIC [2] | MIC [3] | MIC [4] | MIC [5] | MIC [6] | MIC [7] | MIC [8] | MIC [9] | MIC [10] | MCC at 24 h [1] | MIC [11] | MIC [12] | MIC [13] | MIC [14] | MIC [15] | MIC [16] | MIC [17] | MIC [18] | MIC [19] | MIC [20] | also measured |
| --- | --- | --- | --- | --- | --- | --- | --- | --- | --- | --- | --- | --- | --- | --- | --- | --- | --- | --- | --- | --- | --- |
| C[C@H](C(=O)NCCCNCCCCNCCCN)[C@H]1CC[C@H]2[C@@H]3CC=C4C[C@@H](O)CC[C@]4(C)[C@H]3CC[C@]12C [SM-1, 23,24-Bisnor-3β-ol-5-cholenic acid 3-ol spermine conjugate] | 25 µg/mL (≈ 47.1 µM) | 1.56 µg/mL (≈ 2.94 µM) | 3.13 µg/mL (≈ 5.9 µM) | > 100 µg/mL | 1.56 µg/mL (≈ 2.94 µM) | 6.25 µg/mL (≈ 11.8 µM) | 6.25 µg/mL (≈ 11.8 µM) | 100 µg/mL (≈ 188 µM) | 12.5 µg/mL (≈ 23.5 µM) | – | – | – | – | – | – | – | – | – | – | – | minimal hemolytic concentration (MHC) at 24 h ([1]; sheep red blood cells, 24 hours at 37° C. in saline): 100 µg/mL |
| C[C@H](C(=O)NCCNCCNCCN)[C@H]1CC[C@H]2[C@@H]3CC=C4C[C@@H](O)CC[C@]4(C)[C@H]3CC[C@]12C [SM-5] | > 100 µg/mL | 25 µg/mL (≈ 52.7 µM) | 50 µg/mL (≈ 105 µM) | > 100 µg/mL | 25 µg/mL (≈ 52.7 µM) | 100 µg/mL (≈ 211 µM) | > 100 µg/mL | > 100 µg/mL | 100 µg/mL (≈ 211 µM) | > 100 µg/mL | > 100 µg/mL | > 100 µg/mL | > 100 µg/mL | > 100 µg/mL | > 100 µg/mL | 6.25 µg/mL (≈ 13.2 µM) | > 100 µg/mL | > 100 µg/mL | > 100 µg/mL | > 100 µg/mL | MIC [21]: 25 µg/mL (≈ 52.7 µM); MIC [22]: > 100 µg/mL |
| C[C@H](CCC(=O)NCCCNCCCCNCCCN)[C@H]1CC[C@H]2[C@@H]3CC[C@@H]4C[C@H](OS(=O)(=O)O)CC[C@]4(C)[C@H]3C[C@H](OS(=O)(=O)O)[C@]12C [SM-8] | 50 µg/mL (≈ 67.8 µM) | 25 µg/mL (≈ 33.9 µM) | 25 µg/mL (≈ 33.9 µM) | > 100 µg/mL | 25 µg/mL (≈ 33.9 µM) | 25 µg/mL (≈ 33.9 µM) | 50 µg/mL (≈ 67.8 µM) | 100 µg/mL (≈ 136 µM) | > 100 µg/mL | > 100 µg/mL | > 100 µg/mL | > 100 µg/mL | > 100 µg/mL | 50 µg/mL (≈ 67.8 µM) | > 100 µg/mL | 6.25 µg/mL (≈ 8.48 µM) | 50 µg/mL (≈ 67.8 µM) | 25 µg/mL (≈ 33.9 µM) | 100 µg/mL (≈ 136 µM) | 50 µg/mL (≈ 67.8 µM) | MIC [21]: 100 µg/mL (≈ 136 µM); MIC [22]: 50 µg/mL (≈ 67.8 µM) |
| C[C@H](CCCNCCCCN)[C@H]1CC[C@H]2[C@@H]3CC[C@@H]4C[C@H](O)CC[C@]4(C)[C@H]3C[C@H](O)[C@]12C [SM-9H] | 12.5 µg/mL (≈ 27.9 µM) | 6.25 µg/mL (≈ 13.9 µM) | 1.56 µg/mL (≈ 3.48 µM) | > 100 µg/mL | 1.56 µg/mL (≈ 3.48 µM) | 1.56 µg/mL (≈ 3.48 µM) | 0.78 µg/mL (≈ 1.74 µM) | 3.13 µg/mL (≈ 6.98 µM) | 25 µg/mL (≈ 55.7 µM) | 50 µg/mL | 12.5 µg/mL (≈ 27.9 µM) | 6.25 µg/mL (≈ 13.9 µM) | 100 µg/mL (≈ 223 µM) | 50 µg/mL (≈ 111 µM) | 6.25 µg/mL (≈ 13.9 µM) | 0.78 µg/mL (≈ 1.74 µM) | 3.13 µg/mL (≈ 6.98 µM) | 3.13 µg/mL (≈ 6.98 µM) | 25 µg/mL (≈ 55.7 µM) | 0.78 µg/mL (≈ 1.74 µM) | MIC [21]: 12.5 µg/mL (≈ 27.9 µM); MIC [22]: 6.25 µg/mL (≈ 13.9 µM) |
| C[C@H](CCC(=O)NCCCCN)[C@H]1CC[C@H]2[C@@H]3CC[C@@H]4C[C@H](O)CC[C@]4(C)[C@H]3C[C@H](O)[C@]12C [SM-9] | 50 µg/mL (≈ 108 µM) | 100 µg/mL (≈ 216 µM) | 25 µg/mL (≈ 54 µM) | > 100 µg/mL | 25 µg/mL (≈ 54 µM) | 25 µg/mL (≈ 54 µM) | 25 µg/mL (≈ 54 µM) | 25 µg/mL (≈ 54 µM) | 50 µg/mL (≈ 108 µM) | 50 µg/mL | 50 µg/mL (≈ 108 µM) | 50 µg/mL (≈ 108 µM) | 50 µg/mL (≈ 108 µM) | 50 µg/mL (≈ 108 µM) | 25 µg/mL (≈ 54 µM) | 6.25 µg/mL (≈ 13.5 µM) | 12.5 µg/mL (≈ 27 µM) | 25 µg/mL (≈ 54 µM) | 50 µg/mL (≈ 108 µM) | 25 µg/mL (≈ 54 µM) | MIC [21]: 100 µg/mL (≈ 216 µM); MIC [22]: 25 µg/mL (≈ 54 µM) |
| C[C@H](CCC(=O)NCCNCCNCCN)[C@H]1CC[C@H]2[C@@H]3CC[C@@H]4C[C@H](O)CC[C@]4(C)[C@H]3C[C@H](O)[C@]12C [SM-11] | 25 µg/mL (≈ 48 µM) | 6.25 µg/mL (≈ 12 µM) | 6.25 µg/mL (≈ 12 µM) | 50 µg/mL (≈ 96 µM) | 6.25 µg/mL (≈ 12 µM) | 12.5 µg/mL (≈ 24 µM) | 6.25 µg/mL (≈ 12 µM) | 12.5 µg/mL (≈ 24 µM) | 12.5 µg/mL (≈ 24 µM) | 25 µg/mL | 12.5 µg/mL (≈ 24 µM) | 12.5 µg/mL (≈ 24 µM) | 12.5 µg/mL (≈ 24 µM) | 12.5 µg/mL (≈ 24 µM) | 12.5 µg/mL (≈ 24 µM) | 6.25 µg/mL (≈ 12 µM) | 6.25 µg/mL (≈ 12 µM) | 12.5 µg/mL (≈ 24 µM) | 12.5 µg/mL (≈ 24 µM) | 6.25 µg/mL (≈ 12 µM) | activity against S. marcescens ([5]; in words): found even against S. marcescens; also recorded: effective against S. marcescens; MIC [21]: 6.25 µg/mL (≈ 12 µM); MIC [22]: 12.5 µg/mL (≈ 24 µM) |
